According to ChEMBL document CHEMBL1201862, “PubChem BioAssay data set” (2004):
The source made the active and inactive calls.

What was measured:
Hexokinase HKDC1 = biological target: T1, Hexokinase HKDC1 (Homo sapiens, UniProt Q2TB90); assay: HKDC1 hexokinase activators, dose response, biochemical, W721R variant (AID 504730); type: functional
T1 sequence (Q2TB90 whole entry): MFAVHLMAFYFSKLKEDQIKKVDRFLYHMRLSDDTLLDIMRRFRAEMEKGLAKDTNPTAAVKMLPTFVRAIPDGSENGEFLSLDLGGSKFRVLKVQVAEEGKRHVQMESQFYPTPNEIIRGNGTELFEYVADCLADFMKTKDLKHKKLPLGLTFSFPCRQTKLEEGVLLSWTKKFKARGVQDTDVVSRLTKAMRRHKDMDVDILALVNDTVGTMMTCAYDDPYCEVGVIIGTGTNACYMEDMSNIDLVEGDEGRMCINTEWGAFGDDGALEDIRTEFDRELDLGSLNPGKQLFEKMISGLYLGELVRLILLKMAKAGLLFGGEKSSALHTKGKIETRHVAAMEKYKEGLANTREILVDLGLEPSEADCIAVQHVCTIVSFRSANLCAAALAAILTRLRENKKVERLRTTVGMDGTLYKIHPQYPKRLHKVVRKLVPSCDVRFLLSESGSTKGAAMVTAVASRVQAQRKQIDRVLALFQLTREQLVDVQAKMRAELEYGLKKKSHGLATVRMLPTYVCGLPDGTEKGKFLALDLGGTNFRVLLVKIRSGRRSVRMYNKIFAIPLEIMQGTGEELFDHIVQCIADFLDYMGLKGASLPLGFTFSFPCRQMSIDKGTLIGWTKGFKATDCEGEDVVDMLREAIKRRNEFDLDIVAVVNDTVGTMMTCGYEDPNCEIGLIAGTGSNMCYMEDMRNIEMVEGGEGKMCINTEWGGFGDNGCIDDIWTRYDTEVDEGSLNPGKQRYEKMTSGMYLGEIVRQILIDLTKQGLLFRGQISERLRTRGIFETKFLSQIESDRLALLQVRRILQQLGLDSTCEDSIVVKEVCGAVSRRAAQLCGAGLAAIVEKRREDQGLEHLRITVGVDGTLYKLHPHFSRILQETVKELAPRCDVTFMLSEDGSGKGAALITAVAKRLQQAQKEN

Hexokinase-1 = biological target: T2, Hexokinase-1 (Homo sapiens, UniProt P19367); assay: hexokinase 1 activators, dose response, selectivity assay for HKDC1 activator project, biochemical (AID 504762); type: functional
T2 sequence (P19367 whole entry): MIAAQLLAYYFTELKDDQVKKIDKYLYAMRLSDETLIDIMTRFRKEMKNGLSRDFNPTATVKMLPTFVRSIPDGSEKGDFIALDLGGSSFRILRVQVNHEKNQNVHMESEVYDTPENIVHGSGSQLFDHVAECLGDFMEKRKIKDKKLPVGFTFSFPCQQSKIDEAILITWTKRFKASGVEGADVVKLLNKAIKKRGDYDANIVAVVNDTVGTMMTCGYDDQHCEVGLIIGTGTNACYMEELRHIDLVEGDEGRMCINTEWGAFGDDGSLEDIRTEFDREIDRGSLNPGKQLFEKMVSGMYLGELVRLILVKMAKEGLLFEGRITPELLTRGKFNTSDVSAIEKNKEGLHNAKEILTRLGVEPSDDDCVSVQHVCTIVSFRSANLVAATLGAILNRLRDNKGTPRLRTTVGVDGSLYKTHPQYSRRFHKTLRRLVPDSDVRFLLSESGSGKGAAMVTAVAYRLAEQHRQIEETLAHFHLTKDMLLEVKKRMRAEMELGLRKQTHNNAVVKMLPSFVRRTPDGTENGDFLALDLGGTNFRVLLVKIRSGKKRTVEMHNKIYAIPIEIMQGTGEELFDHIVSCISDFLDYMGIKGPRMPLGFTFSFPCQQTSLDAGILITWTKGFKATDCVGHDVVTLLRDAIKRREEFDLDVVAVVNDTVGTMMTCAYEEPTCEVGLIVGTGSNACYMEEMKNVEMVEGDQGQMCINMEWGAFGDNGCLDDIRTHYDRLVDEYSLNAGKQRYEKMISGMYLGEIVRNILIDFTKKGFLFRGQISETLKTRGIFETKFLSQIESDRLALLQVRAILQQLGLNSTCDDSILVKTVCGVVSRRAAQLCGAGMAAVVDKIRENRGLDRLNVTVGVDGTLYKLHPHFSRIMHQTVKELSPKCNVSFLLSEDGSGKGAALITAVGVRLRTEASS

[1] = Luminescence Cell-Based Dose Response HTS to Identify Inhibitors of 5'UTR Stem-Loop Driven Prion Protein mRNA Translation in H4 Neuroglioblastoma Cells. [Related pubchem assays: 1827 (Project Summary), 1813 (Primary HTS)]; type: functional
[2] = inhibitors of SNCA 5'UTR-driven reporter translation, confirmation, H4 neuroglioma cells, luminescence (AID 1988); type: functional, cell-based
[3] = inhibitors of firefly luciferase expression or activity, dose response, H4 neuroglioma cells, luminescence (AID 1990); type: functional, cell-based
[4] = Luminescence Cell-Based Dose Retest to Confirm Inhibitors of Cancer Stem Cells. [Related pubchem assays (depositor defined):AID2717, AID2721]; type: functional; details: Homo sapiens
Protein RecA = biological target: T3, Protein RecA (Mycobacterium tuberculosis, UniProt P9WHJ3); assay: Fluorescence Cell-Free Homogeneous Dose Retest to Identify Inhibitors of RecA-Intein Splicing Activity. [Related pubchem assays (depositor defined):AID2097, AID2223, AID489010, AID492950]; type: functional
T3 sequence (P9WHJ3 whole entry): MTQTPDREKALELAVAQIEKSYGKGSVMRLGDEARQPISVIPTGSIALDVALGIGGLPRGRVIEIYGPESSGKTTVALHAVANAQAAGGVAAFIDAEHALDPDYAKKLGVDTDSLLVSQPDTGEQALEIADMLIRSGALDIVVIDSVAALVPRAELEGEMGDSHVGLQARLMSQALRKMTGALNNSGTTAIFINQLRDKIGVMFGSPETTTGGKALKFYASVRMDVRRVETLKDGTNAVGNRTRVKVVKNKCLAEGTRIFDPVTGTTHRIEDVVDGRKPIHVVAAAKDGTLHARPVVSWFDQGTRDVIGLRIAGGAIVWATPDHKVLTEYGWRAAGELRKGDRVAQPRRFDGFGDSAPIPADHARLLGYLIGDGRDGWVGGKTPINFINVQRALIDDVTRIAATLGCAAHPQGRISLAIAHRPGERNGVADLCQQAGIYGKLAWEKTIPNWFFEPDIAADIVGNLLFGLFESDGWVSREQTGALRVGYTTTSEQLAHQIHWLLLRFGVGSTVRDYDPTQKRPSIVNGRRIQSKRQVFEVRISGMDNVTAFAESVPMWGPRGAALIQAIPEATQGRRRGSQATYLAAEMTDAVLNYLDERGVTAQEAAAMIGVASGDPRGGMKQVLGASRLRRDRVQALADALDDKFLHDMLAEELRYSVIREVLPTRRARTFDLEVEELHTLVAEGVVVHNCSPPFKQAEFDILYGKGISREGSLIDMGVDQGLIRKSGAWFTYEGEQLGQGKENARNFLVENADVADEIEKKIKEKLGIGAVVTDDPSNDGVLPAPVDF

[5] = Intein inhibitors as potential Tuberculosis drugs, a cytotoxicity screen. [Related pubchem assays (depositor defined):AID2221, AID2223, AID434968, AID435010, AID449749, AID449750, AID489010]; type: functional
[6] = biological target: T4, Replicative DNA helicase DnaB (Mycobacterium tuberculosis, UniProt P9WMR3); assay: DnaB intein splicing inhibitors, dose response, biochemical, cell-free fluorescence (AID 449749); type: functional
T4 sequence (P9WMR3 whole entry): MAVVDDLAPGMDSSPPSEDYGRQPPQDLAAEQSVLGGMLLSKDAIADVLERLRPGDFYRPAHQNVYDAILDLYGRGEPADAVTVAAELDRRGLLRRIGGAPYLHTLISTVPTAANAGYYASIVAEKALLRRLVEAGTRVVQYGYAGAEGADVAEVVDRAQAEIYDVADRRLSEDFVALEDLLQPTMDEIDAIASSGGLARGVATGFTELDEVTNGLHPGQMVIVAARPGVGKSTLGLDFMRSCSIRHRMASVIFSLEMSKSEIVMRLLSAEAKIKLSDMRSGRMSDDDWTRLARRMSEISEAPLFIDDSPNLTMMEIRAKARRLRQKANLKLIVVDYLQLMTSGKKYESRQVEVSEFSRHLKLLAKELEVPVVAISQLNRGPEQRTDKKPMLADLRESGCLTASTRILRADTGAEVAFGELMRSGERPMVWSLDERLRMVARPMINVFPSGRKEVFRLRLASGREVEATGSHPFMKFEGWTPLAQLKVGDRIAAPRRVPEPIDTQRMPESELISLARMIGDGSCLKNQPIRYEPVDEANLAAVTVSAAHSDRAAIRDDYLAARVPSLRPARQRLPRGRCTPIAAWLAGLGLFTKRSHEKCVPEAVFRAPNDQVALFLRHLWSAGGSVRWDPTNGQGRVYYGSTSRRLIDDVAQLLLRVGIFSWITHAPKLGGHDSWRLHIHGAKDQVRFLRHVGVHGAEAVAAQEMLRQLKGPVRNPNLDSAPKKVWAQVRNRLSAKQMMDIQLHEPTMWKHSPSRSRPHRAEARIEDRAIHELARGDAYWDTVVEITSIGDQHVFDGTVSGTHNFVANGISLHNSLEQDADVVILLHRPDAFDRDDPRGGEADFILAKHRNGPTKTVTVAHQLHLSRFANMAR

Cytochrome P450 2D6 = Cytochrome P450 2D6 (Homo sapiens, UniProt P10635);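 also: CYP2D6 member of a cytochrome P450 panel assay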
Sequence of Cytochrome P450 2D6 (P10635 whole entry): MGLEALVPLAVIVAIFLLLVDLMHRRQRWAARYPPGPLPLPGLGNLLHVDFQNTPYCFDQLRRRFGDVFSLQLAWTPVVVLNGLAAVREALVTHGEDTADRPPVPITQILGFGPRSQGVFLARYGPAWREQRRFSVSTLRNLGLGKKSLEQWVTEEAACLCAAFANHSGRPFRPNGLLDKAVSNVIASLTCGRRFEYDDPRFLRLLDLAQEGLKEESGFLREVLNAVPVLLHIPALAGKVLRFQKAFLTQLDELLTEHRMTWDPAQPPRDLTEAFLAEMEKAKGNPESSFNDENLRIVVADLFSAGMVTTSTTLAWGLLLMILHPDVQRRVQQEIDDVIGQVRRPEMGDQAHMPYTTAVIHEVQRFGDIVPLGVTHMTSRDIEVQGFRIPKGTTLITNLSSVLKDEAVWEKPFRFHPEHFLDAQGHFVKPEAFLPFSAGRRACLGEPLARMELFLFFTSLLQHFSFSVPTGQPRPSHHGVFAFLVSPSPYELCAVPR

[7] = biological target: T5, Kappa-type opioid receptor (Homo sapiens, UniProt P41145); assay: SAR analysis of Antagonists of the Kappa Opioid Receptor (KOR) using an Image-Based Assay - Set 3. [Related pubchem assays (depositor defined):AID1777, AID1785]; type: functional
T5 sequence (P41145 whole entry): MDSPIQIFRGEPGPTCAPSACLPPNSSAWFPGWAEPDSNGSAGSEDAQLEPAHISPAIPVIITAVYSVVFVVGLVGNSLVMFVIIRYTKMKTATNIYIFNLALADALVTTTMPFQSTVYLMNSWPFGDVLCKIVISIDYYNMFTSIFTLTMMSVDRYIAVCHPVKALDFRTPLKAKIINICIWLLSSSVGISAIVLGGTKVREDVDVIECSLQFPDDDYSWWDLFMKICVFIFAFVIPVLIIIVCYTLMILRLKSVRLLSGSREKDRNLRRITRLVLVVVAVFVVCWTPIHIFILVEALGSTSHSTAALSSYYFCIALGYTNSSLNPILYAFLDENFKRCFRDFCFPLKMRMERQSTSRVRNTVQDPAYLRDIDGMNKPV

Mu-type opioid receptor = Mu-type opioid receptor (Homo sapiens, UniProt P35372); assay: SAR Analysis of Antagonists of the MOR Receptor using an Image-Based Assay - Set 3. [Related pubchem assays (depositor defined):AID1777, AID1785, AID1786, AID1966, AID2133, AID2136, AID2284, AID2285, AID2420]; type: functional
Sequence of Mu-type opioid receptor (P35372 whole entry): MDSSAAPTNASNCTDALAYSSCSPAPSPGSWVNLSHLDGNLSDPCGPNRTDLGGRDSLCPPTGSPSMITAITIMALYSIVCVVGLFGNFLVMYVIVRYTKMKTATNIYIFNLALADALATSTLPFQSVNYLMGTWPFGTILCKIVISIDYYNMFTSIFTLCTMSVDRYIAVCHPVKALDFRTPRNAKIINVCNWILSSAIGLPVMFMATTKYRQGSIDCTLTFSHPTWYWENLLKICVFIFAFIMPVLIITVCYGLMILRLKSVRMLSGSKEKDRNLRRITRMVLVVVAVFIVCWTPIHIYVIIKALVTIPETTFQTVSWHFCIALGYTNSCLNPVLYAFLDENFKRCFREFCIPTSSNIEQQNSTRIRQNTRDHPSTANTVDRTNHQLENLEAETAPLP

[8] = biological target: T5, Kappa-type opioid receptor; assay: SAR analysis of small molecule antagonists of the kappa opioid receptor via a luminescent beta-arrestin assay - Set 3. [Related pubchem assays (depositor defined):AID1777, AID1778, AID1785, AID1786, AID1966, AID2133, AID2136, AID2285, AID2495]; type: functional
[9] = biological target: Delta-type opioid receptor (Homo sapiens, UniProt P41143); assay: SAR Analysis of Antagonists of the DOR Receptor using an Image-Based Assay - Set 3. [Related pubchem assays (depositor defined):AID1777, AID1785]; type: functional;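 also: U2OS cells expressing DOR1 and beta-arrestin GFP stimulated with 100 nM SNC80; imaging of GFP-tagged beta-arrestin moving into spots after receptor activation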
Sequence of Delta-type opioid receptor (P41143 whole entry): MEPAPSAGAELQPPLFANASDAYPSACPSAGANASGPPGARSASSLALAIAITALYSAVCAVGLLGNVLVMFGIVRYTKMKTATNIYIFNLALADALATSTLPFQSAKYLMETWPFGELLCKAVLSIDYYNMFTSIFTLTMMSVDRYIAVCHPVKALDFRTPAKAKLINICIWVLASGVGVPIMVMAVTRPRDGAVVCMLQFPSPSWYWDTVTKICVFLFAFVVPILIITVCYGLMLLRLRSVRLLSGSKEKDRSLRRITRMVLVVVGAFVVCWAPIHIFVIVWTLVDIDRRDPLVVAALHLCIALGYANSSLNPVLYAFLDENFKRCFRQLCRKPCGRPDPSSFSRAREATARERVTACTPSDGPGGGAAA
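For CC50 in this document: cells exposed to compound for 72 hours before luminescence readout.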

## COc1cc(OC)cc(C(=O)NC(=S)NNC(=O)c2cnccn2)c1
Hexokinase HKDC1
  EC50: 11.5 µM (active)
Hexokinase-1
  EC50: > 80 µM (inactive)
[1]
  EC50: 11.5 µM (active)
[2]
  EC50: 10.2 µM (active)
[3]
  EC50: > 120 µM (not active)

## CC(C)CCn1c(N)c(C(=O)NCc2cccs2)c2nc3ccccc3nc21
[4]
  AC50: 3.46 µM (active)
Protein RecA
  EC50: 3.04 µM (active)
[5]
  CC50: > 40 µM (active)
[6]
  AC50: 4.01 µM (active)
Cytochrome P450 2D6
  AC50: 8.91 µM (inconclusive)

## CCc1ccc(S(=O)(=O)NCc2ccc(C(=O)NCCN(Cc3ccccc3)C(C)CC)cc2)cc1 (centres undefined)
[7]
  IC50: 0.47 µM (active)
Mu-type opioid receptor
  IC50: > 32 µM (inactive)
[8]
  IC50: 1.42 µM (active)
[9]
  IC50: > 32 µM (inactive)
